This is an account of results in patent US10072055B2, “Anti-inflammatory pharmaceutical products” (Resother Pharma APS, priority 2011, dated 2018).

Entries after “also recorded” stand apart in the source; their conditions may differ. Ends that are not written are not given here.

For data set [1], the target named is T1, PR3 (Homo sapiens, UniProt P24158).
T1 sequence (P24158 28-248 limits assumed): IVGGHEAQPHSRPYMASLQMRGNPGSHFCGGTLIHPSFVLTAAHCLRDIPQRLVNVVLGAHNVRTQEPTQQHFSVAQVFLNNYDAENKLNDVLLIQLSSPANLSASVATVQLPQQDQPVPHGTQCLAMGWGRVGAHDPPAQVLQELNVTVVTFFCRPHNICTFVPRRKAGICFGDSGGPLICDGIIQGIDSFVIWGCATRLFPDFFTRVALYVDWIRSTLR
The data set is described as follows: In vitro degradation/digest in the presence of PR3. Type of data set: in vitro ADME. On the procedure: FIG. 8 is a logarithmic plot of the degradation over time of three polypeptides of the present disclosure, UGP022 (SEQ ID NO: 5), UGP025 (SEQ ID NO: 7) and UGP026 (SEQ ID NO: 8) in the presence of PR3, a protease implicated in the in vivo cleavage of Annexin 1.
In an attempt to improve the potency and increase the half-life of the UGP022 peptide of the present disclosure (SEQ ID NO: 5), a series of in vitro PR3 and FINE digests were conducted. […] This cleavage site is not believed to have been identified in the literature.
Degradation tests of three polypeptides of the present disclosure, UGP022 (SEQ ID NO:5), UGP025 (SEQ ID NO:7) and UGP026 (SEQ ID NO:8) in the presence of PR3, a protease implicated in the in vivo cleavage of Annexin 1, indicated better stability for polypeptides with Leucine substitution at position 24 relative to a polypeptide lacking that feature. Position 24 corresponds to position 25 of Annexin 1 because all tested polypeptides lack the methionine at position 1 of natural Annexin. A 47-residue polypeptide outperformed an otherwise identical 49-residue polypeptide. Similar results were obtained in degradation tests in the presence of FINE.
FIG. 8 is a logarithmic plot of the degradation over time of three polypeptides of the present disclosure, UGP022 (SEQ ID NO:5), UGP025 (SEQ ID NO:7) and UGP026 (SEQ ID NO:8) in the presence of PR3, a protease implicated in the in vivo cleavage of Annexin 1. […] Also, a 47-residue polypeptide amidated at its C-terminus outperformed an otherwise identical 49-residue polypeptide amidated at its C-terminus.

Data set [2] deals with reperfusion injury. The data set is described as follows: Myocardial ischemia/reperfusion injury, infarct size (LADCA occlusion). Type of data set: in vivo, C57/B16 mice. The settings on record: i.v. bolus at beginning of reperfusion; 25 min ischemia, 120 min reperfusion. The protocol:
Infarct size in C57/B16 mice (˜30 g body weight) following 25 min ischemia (occlusion of the left anterior descending coronary artery; [LADCA]) and 120 min reperfusion. Vehicle or UGP022 (SEQ ID NO:5) were administered i.v. (over 5 sec bolus) at beginning of reperfusion. Area at Risk was measured following re-occlusion and injection of Evans blue dye. Infarct size was determined following NBT staining of the Area at Risk. Results are mean±SEM of 4 mice per group; **P<0.01
Infarct size in C57/B16 mice (˜30 g body weight) following 25 min ischemia (LADCA occlusion) and 120 min reperfusion. Vehicle, UGP025 (SEQ ID NO:7) (5 μg) or UGP026 (SEQ ID NO:8) (5 μg) were administered i.v. (over 5 sec bolus) at beginning of reperfusion. Area at Risk was measured following re-occlusion and injection of Evans blue dye. Infarct size was determined following NBT staining of the Area at Risk. Results are mean±SEM of 4 mice per group; **P<0.01

The subject of data set [3] is leukocyte recruitment into the inflamed airpouch. The data set is described as follows: Mouse IL-1β air-pouch inflammation model (leukocyte migration). Type of data set: in vivo. The settings on record: mouse air-pouch. On the procedure: FIG. 3A and FIG. 3B are a series of bar charts comparing the anti-inflammatory effects of three polypeptides (Pep57 (SEQ ID NO:12); Pep59 (SEQ ID NO:13) and Pep84 (SEQ ID NO:14)) of the present disclosure versus a vehicle-only control.
FIG. 3A and FIG. 3B are a series of bar charts comparing the anti-inflammatory effects of three polypeptides (Pep57 (SEQ ID NO: 12); Pep59 (SEQ ID NO: 13) and Pep84 (SEQ ID NO: 14)) of the present disclosure versus a vehicle-only control. Mice received 200 μl i.v. of saline+DMSO or a dose of 50 μg per animal of one of the three Ac2-26 derived peptides, immediately before the local injection of mouse IL-1β into 6-day-old airpouches. The extent of cell migration was determined 4 h later, following airpouch washing and staining of migrated cells with Gr1 marker. […] Data are mean±SEM of 5 mice per group. *P<0.05 vs. vehicle group (one way ANOVA).

Data set [4] relates to inflamed microcirculation. In words: Inflamed microcirculation in vivo. Set-up: species or system murine.
Data set [5] deals with T2, FPR2 (Homo sapiens, UniProt P25090).
T2 sequence (P25090 1-351): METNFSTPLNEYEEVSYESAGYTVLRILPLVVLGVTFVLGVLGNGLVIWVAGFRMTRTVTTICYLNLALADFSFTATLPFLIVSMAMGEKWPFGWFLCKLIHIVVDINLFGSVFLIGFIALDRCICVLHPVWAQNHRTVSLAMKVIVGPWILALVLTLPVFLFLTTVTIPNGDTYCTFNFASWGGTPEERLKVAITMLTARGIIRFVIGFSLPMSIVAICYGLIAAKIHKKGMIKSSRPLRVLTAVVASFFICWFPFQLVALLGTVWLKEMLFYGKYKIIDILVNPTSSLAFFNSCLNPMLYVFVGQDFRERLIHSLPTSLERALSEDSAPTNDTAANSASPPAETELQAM
In words: FPR2 activation (ERK phosphorylation and intracellular calcium fluxes). Type of data set: cell-based.

For data set [6], the target named is T3, FPR1 (Homo sapiens, UniProt P21462).
T3 sequence (P21462 1-350): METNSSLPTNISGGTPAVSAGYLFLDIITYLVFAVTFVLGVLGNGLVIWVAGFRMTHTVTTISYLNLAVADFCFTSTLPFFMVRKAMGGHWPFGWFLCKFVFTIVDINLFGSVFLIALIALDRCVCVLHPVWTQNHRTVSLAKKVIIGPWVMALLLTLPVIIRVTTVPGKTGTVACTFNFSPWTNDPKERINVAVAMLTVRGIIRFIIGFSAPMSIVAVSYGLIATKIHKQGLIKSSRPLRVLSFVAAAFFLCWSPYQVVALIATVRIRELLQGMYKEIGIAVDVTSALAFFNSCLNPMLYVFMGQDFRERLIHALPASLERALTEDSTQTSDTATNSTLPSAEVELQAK
The data set is described as follows: FPR1 activation (ERK phosphorylation and intracellular calcium fluxes). Type of data set: cell-based.

As to “AMVSEFLKQAWFIENEEQEYVQTLKSSKGGPGSAVSPYPTFNPSSDV-NH2 [UGP025, Leu25-ANXA1(2-48)-NH2]”, in data set [1], the “stability / resistance to PR3 degradation” value was “more resistant to PR3 and FINE than the UGP022 peptide”. Also, the “tissue protection / reduction of reperfusion injury (infarct size)” value (“tissue protection / reduction” for short) in data set [2] is on record as “affording cardioprotection; also recorded: reduce the risk of reperfusion injury relative to a vehicle-only control”.

In the case of “AMVSEFLKQAWFIENEEQEYVQTLKSSKGGPGSAVSPYPTFNPSSDVAA-NH2 [UGP026, Leu25-ANXA1(2-50)-NH2]”, the “stability / resistance to PR3 degradation” value in data set [1] is “more resistant to PR3 and FINE than the UGP022 peptide”. In addition, the “tissue protection / reduction” value in data set [2] was “affording cardioprotection; also recorded: reduce the risk of reperfusion injury relative to a vehicle-only control”.

On to “AMVSEFLKQAWFIENEEQEYVQTVKSSKGGPGSAVSPYPTFNPSSDVAA-NH2 [UGP022, ANXA1(2-50)-NH2]”, for which the “cleavage sites by PR3” value in data set [1] (in vitro digest) is “Ala 10 (Ala11 relative to Annexin 1) and Val 21 (Val22 relative to Annexin 1); also recorded: Val 24 (Val25 relative to Annexin 1)”. Also, the “inhibition of leukocyte infiltration/recruitment in air-pouch model” value in data set [3] was “more potent than either the UGP021 peptide; also recorded: the more potent at inhibiting leukocyte recruitment into the inflamed airpouch”. Moreover, the “anti-inflammatory properties in the inflamed microcirculation” value in data set [4] is on record as “potency equivalent to human recombinant Annexin A1”. Moreover, the “activation of FPR2” value in data set [5] is “could activate both FPR1 and FPR2”. The “tissue protection / reduction” value in data set [2] is listed as “potent tissue protective properties; also recorded: reduce the risk of reperfusion injury relative to a vehicle-only control”. The “activation of FPR1” value in data set [6] is “could activate both FPR1 and FPR2”.
